Assay results published in patent US12622945B2, “Hard tissue therapeutics” (OrthoTrophix, Inc., priority 2020, dated 2026).
Entries after “also recorded” stand apart in the source; their conditions may differ. Where no end group is shown, it is not given here.

Tests used:
[1] = test system: subjects with bilateral knee osteoarthritis; assay: Multicenter, randomized double-blind, placebo-controlled clinical study in bilateral knee osteoarthritis; assay type: in vivo, human; conditions: IA injections
Method: No other doses of drug or placebo were administered.
MRI of both knees were obtained from these 93 subjects at baseline, 6 and/or 12 months. They were sent to the central readers of cartilage thickness and 3D bone shape, respectively. Both central readers were blinded to the treatment assignment and clinical data throughout their analysis process.
For the 3D bone shape analyses, its central reader first made a qualification review of all MRI images from the 93 subjects since they were obtained primarily for cartilage thickness measurement.
MRIs from the remaining 78 subjects (156 knees: 78 Index and 78 Control) were qualified for analysis of 3D shape of the knee joint bones (B-scores of femur, tibia, and patella).
If all clinical inclusion and exclusion criteria were met, MRIs of both knees were obtained and evaluated by a central reader to determine the ICRS grade (gICRS) of each knee as the final screening criterion. […]
Vital signs were also monitored after the injections.
Adverse events and concomitant medications were recorded.
All KOOS subscale scores, WOMAC Total score and subscale scores, MRI-based patello-femoral and tibiofemoral cartilage thickness, and MRI-based subchondral bone area and 3D bone shape were analyzed.
MRI images were provided to central readers for cartilage and subchondral bone measures, respectively. Central readers were blind as to treatment assignment. […]

[2] = in vivo

## TDLQERGDNDISPFSGDGQPFKD-NH2 (C-terminus assumed) [SEQ ID No: 10]
[1]
  adverse events: no severe adverse events that were related to the peptide; also recorded: mild or moderate, transient
  safety and tolerability: safe and well tolerated
[2]
  biological effects on cell types, tissues, or organs other than hard tissues: never demonstrated biological effects of the peptide on cell types, tissues, or organs other than cartilage, bone, and dentin
